In series [1] the test system is Swiss mice, LPS endotoxin shock. Description: Endotoxin shock mouse model, survival after LPS challenge. The class given is in vivo. On the procedure:
The protective effect of all inhibitors was evaluated in a similar way. P2 (90 mg/kg P2) was used at a similar molar concentration as Regasepin 2. The effect of lower dosages of P2 (30 mg/kg and 10 mg/kg) was also evaluated in parallel experiments. The details of the animal experiments, including grouping of mice, number of mice in each group, reagent concentrations, and ways of administration, are shown in Table 2. The peptides were administered intravenously 5 minutes after LPS injection.
The protective effects via intravenous injection were evaluated in groups of 6 mice, intravenously injected with 100 μL (7 mg/mL; 35 mg/kg) Regasepin 2 or Inhibitor 2 (35 mg/kg) 5 minutes after intravenous injection of LPS (200 μg per mouse). The numbers of surviving mice were recorded regularly after LPS administration. Kaplan-Meier survival curves were generated. P values were calculated compared with the survival rates of the negative control group. The experiments were performed two times.
Regasepin 2 via intravenous injection (35 mg/kg) was used as a positive control peptide. 200 μL P2 (15 mg/mL) was administered intraperitoneally (150 mg/kg) 30, 60, or 90 minutes before intravenous LPS challenge (200 μg per mouse) to evaluate the effect of P2 via this administration route. The protective effects of a single intravenous injection of P2 (10 mg/kg) and two times intravenous administration of P2 (10 mg/kg) with 2 hours interval were also included and compared.
Results were represented as mean ± SD. Statistical significance was assessed using statistics software SPSS13.0. Two-way analysis of variance (ANOVA) was used to test for differences between groups. For all statistical comparisons, positive groups were compared with negative controls, and ^* P < 0.05 or ^** P < 0.01 were considered statistically significant.

The conditions of series [2]: mouse, in vivo, ip, 150 mg/kg.
Procedure: (§1) The concentration of P2-BSA that was used to coat the plates and the reagent concentration of the P2-specific polyclonal antibody were optimized by two-dimensional serial dilution tests. 96-well microtiter plates were coated with a solution of 6 μg/mL P2-BSA in 0.05 M sodium bicarbonate (pH 9.6) and the plate was kept overnight at 4°C. After washing the plate three times, the plate was blocked with 0.1 M PBS (pH 7.4) containing 10% (V/V) skim milk at 37°C for 1.5 h. To perform the competition ELISA between P2 and the immobilized P2-BSA, P2-specific antibody (1000 times serum dilution) was added to the wells in the presence of plasma or standard samples at 37°C for 1.5 h. After washing the plate three times, 100 μL of horseradish peroxidase-conjugated goat anti-rabbit IgG (1 : 2000) was added and incubated for 1 h at 37°C. After washing three times, the tetramethylbenzidine (TMB) substrate (100 μL/well) was added and the reaction was executed for 15 min. The reactions were stopped with 2 M sulfuric acid (50 μL/well). The absorbance of each well at 450 nm was detected with an automated ELISA reader. The calibration curve was expressed according to the fact that 1-B/B0 are linear with log C (where B0 is the OD value in the absence of P2 in plasma, B is the OD value at serial concentrations of P2 in plasma, and C is the P2 concentration, resp.). The indirect ELISA procedures were conducted in duplicate with a set of standard concentrations of P2 in diluted mouse serum in order to determine the mathematical fitting equation and linear detection range.
(§2) Adult female Swiss mice, 5 animals per group, were used for the pharmacokinetic studies. P2 (90 mg/kg, 30 mg/kg, or 10 mg/kg) was dissolved in sterile 0.9% saline and was administered intravenously. Blood samples were collected through the canthus at 0, 3, 6, 9, 12, 15, and 30 min. For intraperitoneal injection of P2, 150 mg/kg P2 dissolved in 0.9% saline was administered and blood samples were collected through the canthus at 0, 13, 20, 40, 68, 100, 127, and 168 minutes.
(§3) Blood samples were immediately centrifuged (12000 rpm for 30 seconds), and the supernatants were taken and diluted 10, 30, or 300 times with PBS, prewarmed at 80°C in a water bath. The diluted samples were kept at 80°C for another 30 min to remove enzyme activity of the plasma components. Samples were diluted with prewarmed PBS so that the final concentration of P2 was within the linear range of the standard line. After another centrifugation (12000 rpm for 2 min), the diluted samples were analyzed by ELISA to measure the plasma P2 concentrations.
For series [3] the following is noted: mouse, in vivo.
Procedure: as §1, §2, §3
Another series relates to MMP-8. The conditions noted are these: cited from earlier work. The text has this: Table 1 Peptide sequences and their IC50 values in μM against target enzymes. | column: MMP-8
The next series deals with MMP-9. The conditions noted are these: cited from earlier work. The text has this: Table 1 Peptide sequences and their IC50 values in μM against target enzymes. | column: MMP-9
Another series has as its system TACE. To be noted: cited from earlier work. The text has this:
Table 1 Peptide sequences and their IC50 values in μM against target enzymes. | column: TACE

Series [4] has as its system Swiss mice, LPS endotoxin shock. To be noted: 100 μL (7 mg/mL), 35 mg/kg iv 5 minutes after iv LPS, ref [9]; cited from earlier work. On the procedure:
The protective effect of all inhibitors was evaluated in a similar way. P2 (90 mg/kg P2) was used at a similar molar concentration as Regasepin 2. The effect of lower dosages of P2 (30 mg/kg and 10 mg/kg) was also evaluated in parallel experiments. The details of the animal experiments, including grouping of mice, number of mice in ea ...

For series [5] the following is noted: rat; cited from earlier work.
Source text: The pharmacokinetics of P2 by intraperitoneal injection was also investigated.

Where two headings read alike, the source gives them in different places. Non-standard residues stand in square brackets, D forms with d. Residues, ends and D or L forms follow the SMILES beside them. No end group written: not given here. Bip = N[C@@H](Cc1ccc(-c2ccccc2)cc1)C(=O)O; d3Pal = N[C@H](Cc1cccnc1)C(=O)O

A word on the IC50: it is the concentration that gives 50% inhibition.

As to `CC[C@H](C)[C@H](NC(=O)CNC(=O)CNC(=O)CNC(=O)CNC(=O)[C@H](CCC(=O)O)NC(=O)CNC(=O)[C@H](CCCNC(=N)N)NC(=O)[C@H](Cc1ccc(-c2ccccc2)cc1)NC(=O)[C@@H](CS)NC(=O)[C@@H](Cc1cccnc1)NC(=O)[C@@H]1CCCN1)C(=O)N[C@H](C(=O)N[C@@H](CCCNC(=N)N)C(=O)N[C@@H](CCCNC(=N)N)C(=O)N[C@@H](C)C(=O)N[C@@H](CC(=O)O)C(=O)N[C@@H](CCCNC(=N)N)C(=O)N[C@@H](C)C(=O)N[C@@H](C)C(=O)N[C@H](C(=O)N1CCC[C@H]1C(=O)O)C(C)C)C(C)C` [P2] (H-P[d3Pal][dC][Bip]RGEGGGGIVRRADRAAVP-OH; N-terminus and C-terminus assumed), the “Survival after two injections (G3) versus single injection (G2)” value in series [1] (10 mg/kg iv 5 minutes after LPS iv and again 2 hours later, n = 12, Figure 4(a) G3) was “less mice survived”. Moreover, in series [1] (single 10 mg/kg iv 5 minutes after LPS iv, n = 12, Figure 4(a) G2), the “Survival versus LPS-treated control group” value is “significant difference with the LPS-treated control group”. For the same molecule, in series [2], the level at time molar at 100 min stood at 1540 nM. The “Time at which the peak plasma level was reached” value in series [3] (ip, 150 mg/kg) is ≤ 13 min. In addition, the “Time an effective P2 concentration (above 2 μM) remained in plasma” value in series [3] (iv, 10 mg/kg) amounted to 6 min. Moreover, the “Time the effective plasma concentration of P2 lasted” value in series [3] (iv, 90 mg/kg) is “less than 30 minutes”. Also, the IC50 in the series with MMP-8 (ref [10]) was 350 nM; in the series with MMP-9 (ref [10]), 1360 nM; in the series on TACE (ref [10]) it was 1950 nM.
Regarding “Pro-Pyr-Cys-Bip-Arg-Gly-Glu [Regasepin 2]”, the “Protective effect (survival), positive control” value in series [1] (35 mg/kg iv 5 minutes after LPS iv, n = 12, Figures 4(b)-4(d)) is “significant protective effect”. The IC50 in the series with MMP-8 (ref [9]) was 10000 nM; in the series on MMP-9 (ref [9]), 800 nM; in the series on TACE (ref [9]) it was 1500 nM. In addition, the “Protection from endotoxin shock” value in series [4] was “protect mice from endotoxin shock”.
For IVRRADRAAVPGGGGRGD [HM-3], in series [5], the in vivo half-life is 27 min.
For IVRRADRAAVP [ES-2], the IC50 in the series on MMP-8 (ref [10]), in the series with MMP-9 (ref [10]) and in the series on TACE (ref [10]) was > 500000 nM in each case.
For the molecule “PRC[Bip]CGE (cysteine pairing not given here) [Regasepin 1]”, the figures for the 50% inhibitory concentration (IC50) in the series on MMP-8 (ref [8]), in the series with MMP-9 (ref [8]) and in the series on TACE (ref [8]) were 3000 nM, 1500 nM and 5000 nM, respectively.
Regarding “Pro-(D-Pyr)-(D-Cys)-Bip-Arg-Gly-Glu [Inhibitor 2]”, the IC50 is 800 nM in the series with MMP-8 (ref [11]), 2750 nM in the series with MMP-9 (ref [11]) and 5500 nM in the series with TACE (ref [11]).

The record behind these values is article PMC4265539, “Inhibition of Neutrophil Collagenase/MMP-8 and Gelatinase B/MMP-9 and Protection against Endotoxin Shock” (Journal of Immunology Research, 2014).
